Measured values taken from patent US20260274829A1, “NEW E3 UBIQUITIN LIGASE LIGAND, PROTEIN DEGRADATION AGENT AND USE THEREOF” (GLUETACS THERAPEUTICS (SHANGHAI) CO., LTD., priority 2023, published 2026).
pIC50: −log10 of the molar value.

Biological target: T1, human Cereblon WT GST-tagged protein (Homo sapiens, UniProt Q96SW2)
T1 construct: purchased CISBIO 64BDCRBNPEH
Test: CRBN binding, HTRF CEREBLON BINDING kit
Conditions: CRBN binding, HTRF CEREBLON BINDING kit
Method in brief: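 Binding inhibition was calculated from the 665/620 nm emission ratios, with blank wells and solvent wells as references. Test compounds competed for GST-tagged human Cereblon WT against a Thalidomide-Re reagent paired with GST Eu antibody. Plates were sealed and held at room temperature for 3 hours before the HTRF read.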

T1 sequence (Q96SW2 whole entry): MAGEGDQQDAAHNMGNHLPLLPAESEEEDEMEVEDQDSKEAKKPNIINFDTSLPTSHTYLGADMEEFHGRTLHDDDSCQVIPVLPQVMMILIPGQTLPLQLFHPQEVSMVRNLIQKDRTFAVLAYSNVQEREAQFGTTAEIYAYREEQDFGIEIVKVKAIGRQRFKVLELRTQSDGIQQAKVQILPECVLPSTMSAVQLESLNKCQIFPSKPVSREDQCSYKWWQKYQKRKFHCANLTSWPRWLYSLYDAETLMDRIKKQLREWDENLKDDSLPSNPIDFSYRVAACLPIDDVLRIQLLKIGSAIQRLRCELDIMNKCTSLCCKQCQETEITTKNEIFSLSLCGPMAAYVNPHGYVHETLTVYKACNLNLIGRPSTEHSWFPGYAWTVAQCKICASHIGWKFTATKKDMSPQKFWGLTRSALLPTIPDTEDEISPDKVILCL

| pIC50 | Compound |
| --- | --- |
| 6.00 to 6.30 | O=C1CCC(c2ccc(CN3C[C@H]4C[C@@H]3CN4c3ccc(-c4cc(F)c5c(c4)C(=O)N(C(C(=O)Nc4nccs4)c4ncn6c4CCC6)C5)cc3)cc2)C(=O)N1 (stereo partly drawn) [GT-06176, 2-(6,7-dihydro-5H-pyrrolo[1,2-c]imidazol-1-yl)-2-(6-(4-((1R,4R)-5-(4-(2,6-dioxopiperidin-3-yl)benzyl)-2,5-diazabicyclo[2.2.1]heptan-2-yl)phenyl)-4-fluoro-1-oxoisoindolin-2-yl)-N-(thiazol-2-yl)acetamide] |
| 6.00 to 6.30 | O=C1CCN(c2ccc(CN3CCN(C4CCN(c5ccc(-c6cc(F)c7c(c6)C(=O)N(C(C(=O)Nc6nccs6)c6ncn8c6CCC8)C7)cc5)CC4)CC3)cc2)C(=O)N1 (centres unmarked) [GT-06244, 2-(6,7-dihydro-5H-pyrrolo[1,2-c]imidazol-1-yl)-2-(6-(4-(4-(4-(4-(2,4-dioxotetrahydropyrimidin-1(2H)-yl)benzyl)piperazin-1-yl)piperidin-1-yl)phenyl)-4-fluoro-1-oxoisoindolin-2-yl)-N-(thiazol-2-yl)acetamide] |
| > 6.30 | O=C1CCN(c2cncc(CN3C[C@H]4C[C@@H]3CN4c3ccc(-c4cc(F)c5c(c4)C(=O)N(C(C(=O)Nc4nccs4)c4ncn6c4CCC6)C5)cc3)c2)C(=O)N1 (stereo partly drawn) [GT-07388, 2-(6,7-dihydro-5H-pyrrolo[1,2-c]imidazol-1-yl)-2-(6-(4-((1R,4R)-5-((5-(2,4-dioxotetrahydropyrimidin-1(2H)-yl)pyridin-3-yl)methyl)-2,5-diazabicyclo[2.2.1]heptan-2-yl)phenyl)-4-fluoro-1-oxoisoindolin-2-yl)-N-(thiazol-2-yl)acetamide] |

Further lines, the compound ahead of its results:

| Compound | pIC50 |
| --- | --- |
| Cc1nc2c(F)cc(-c3nc(Nc4ccc(N5CCC(N6CCN(Cc7ccc(N8CCC(=O)NC8=O)cc7)CC6)CC5)cn4)ncc3F)cc2n1C(C)C [GT-06739, 1-(4-((4-(1-(6-((5-fluoro-4-(4-fluoro-1-isopropyl-2-methyl-1H-benzo[d]imidazol-6-yl)pyrimidin-2-yl)amino)pyridin-3-yl)piperidin-4-yl)piperazin-1-yl)methyl)phenyl)dihydropyrimidine-2,4(1H,3H)-dione] | 6.00 to 6.30 |
| O=C1CCN(c2cccc(CN3CCN(c4ccc(Nc5ncc6nc(Nc7ccccc7)n(C7CCCC7)c6n5)cc4)CC3)c2)C(=O)N1 [GT-05838, 1-(3-((4-(4-((9-cyclopentyl-8-(phenylamino)-9H-purin-2-yl)amino)phenyl)piperazin-1-yl)methyl)phenyl)dihydropyrimidine-2,4(1H,3H)-dione] | 6.00 to 6.30 |
| O=C1CCC(c2cncc(CN3C[C@H]4C[C@@H]3CN4c3ccc(-c4cc(F)c5c(c4)C(=O)N(C(C(=O)Nc4nccs4)c4ncn6c4CCC6)C5)cc3)c2)C(=O)N1 (stereo partly drawn) [GT-07391, 2-(6,7-dihydro-5H-pyrrolo[1,2-c]imidazol-1-yl)-2-(6-(4-((1R,4R)-5-((5-(2,6-dioxopiperidin-3-yl)pyridin-3-yl)methyl)-2,5-diazabicyclo[2.2.1]heptan-2-yl)phenyl)-4-fluoro-1-oxoisoindolin-2-yl)-N-(thiazol-2-yl)acetamide] | > 6.30 |
| O=C1CCN(c2cc(CN3C[C@H]4C[C@@H]3CN4c3ccc(-c4cc(F)c5c(c4)C(=O)N(C(C(=O)Nc4nccs4)c4ncn6c4CCC6)C5)cc3)ccn2)C(=O)N1 (stereo partly drawn) [GT-07387, 2-(6,7-dihydro-5H-pyrrolo[1,2-c]imidazol-1-yl)-2-(6-(4-((1R,4R)-5-((2-(2,4-dioxotetrahydropyrimidin-1(2H)-yl)pyridin-4-yl)methyl)-2,5-diazabicyclo[2.2.1]heptan-2-yl)phenyl)-4-fluoro-1-oxoisoindolin-2-yl)-N-(thiazol-2-yl)acetamide] | 5.72 to 6.00 |
| O=C1CCC(Nc2cccc(CN3CCC(n4cc(NC(=O)c5cnn6ccc(N7C[C@H]8C[C@@H]7CO8)nc56)c(C(F)F)n4)CC3)c2)C(=O)N1 (stereo partly drawn) [GT-05052, 5-((1R,4R)-2-oxa-5-azabicyclo[2.2.1]heptan-5-yl)-N-(3-(difluoromethyl)-1-(1-(3-((2,6-dioxopiperidin-3-yl)amino)benzyl)piperidin-4-yl)-1H-pyrazol-4-yl)pyrazolo[1,5-a]pyrimidine-3-carboxamide] | 5.72 to 6.00 |
